Columns and labels:
[1] = target: T1, thromboxane A2 receptor (TP) (Homo sapiens, UniProt P21731); assay: Human Thromboxane A2 Receptor Binding Assay; conditions: human platelets; 10 nM [3H]SQ29548; 1 hour, room temperature
T1 construct: using human platelets as the source of the receptor; from tissue; host or cells: human platelets (whole platelets, 5x10^7 per well)
T1 sequence (P21731 1-343): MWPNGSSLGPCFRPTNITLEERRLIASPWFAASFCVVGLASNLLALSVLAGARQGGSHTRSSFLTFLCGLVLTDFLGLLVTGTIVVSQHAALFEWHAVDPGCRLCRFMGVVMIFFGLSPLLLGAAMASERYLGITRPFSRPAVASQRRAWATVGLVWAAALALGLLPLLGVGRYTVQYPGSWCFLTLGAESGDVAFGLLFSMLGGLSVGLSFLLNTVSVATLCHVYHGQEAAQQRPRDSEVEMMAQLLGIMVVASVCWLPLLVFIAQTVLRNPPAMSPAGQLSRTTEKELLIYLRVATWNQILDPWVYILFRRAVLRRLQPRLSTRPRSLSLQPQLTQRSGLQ
Description: The thromboxane A2 receptor (TP) plays a key role in hemostasis as its abnormality leads to bleeding disorders. To avoid the potential liability of bleeding disorders, the binding activity of certain compounds of the present invention against TP was monitored by a receptor binding assay using human platelets as the source of the receptor and [^3H]SQ29548 (generically named (5Z)-[5,6-^3H]-7-[(1S,2R,3R,4R)-3-[[2-[(phenylamino)carbonyl]hydrazinyl]methyl]-7-oxabicyclo[2.2.1]hept-2-yl]-5-heptenoic acid, from PerkinElmer Inc.) as the competing radioactive ligand.
The TP binding reactions (0.2 mL) were performed in 96-well plates at room temperature in PBS containing 5×10^7 platelets, 10 mM MgCl2, 0.06% BSA, 10 nM [^3H]SQ29548, and the test compound at various concentrations. After 1 hour of binding reactions, the platelets were harvested on GF/B filter plates (as previously described from PerkinElmer Inc.) and washed 5 times with PBS using a Filtermate™ Harvester (as previously described from PerkinElmer Inc.). The radioactivities bound to the platelets were determined using a microplate scintillation counter (TopCount® NXT, from PerkinElmer Inc.) after adding 50 μL of Microscint™ 20 scintillation fluid (from PerkinElmer Inc.) to each well of the filter plates. The radioactivity from non-specific binding was determined by replacing the compound with 10 μM of ramatroban (BAY-u3405, from Cayman Chemical Company) in the reaction mixtures. The radioactivity bound to the platelets in the absence of compound (total binding) was determined by replacing the compound with 0.25% of DMSO in the reaction mixture. Specific binding data were obtained by subtracting the radioactivity of non-specific binding from each binding data.
(§1) The IC50 value is defined as the concentration of the tested compound that is required for 50% inhibition of total specific binding. In order to calculate the IC50 value, the percent inhibition data were determined for 7 concentrations for each compound. The percent inhibition for a compound at each concentration was calculated according to the following formula, [1−(specific binding in the presence of compound)/(total specific binding)]×100. The IC50 value was then obtained by fitting the percent inhibition data to a sigmoidal dose-response (4 parameter logistic) model in the XLfit® software Excel add-in program [from ID Business Solutions Ltd., model 205, where F(x)=(A+(B−A)/(1+((C/x)̂D)))].

human CRTH2 = target: T2, human CRTH2 (Homo sapiens, UniProt Q9Y5Y4); assay: Human CRTH2 Receptor Binding Assay (whole cell, [3H]ramatroban competition); design: expressed in transfected cells; host or cells: CHO-K1 (co-transfected with G-alpha16); conditions: CHO-K1 cells expressing human CRTH2 and G-alpha16; 20 nM [3H]ramatroban; 1 hour, room temperature
T2 sequence (Q9Y5Y4 1-395): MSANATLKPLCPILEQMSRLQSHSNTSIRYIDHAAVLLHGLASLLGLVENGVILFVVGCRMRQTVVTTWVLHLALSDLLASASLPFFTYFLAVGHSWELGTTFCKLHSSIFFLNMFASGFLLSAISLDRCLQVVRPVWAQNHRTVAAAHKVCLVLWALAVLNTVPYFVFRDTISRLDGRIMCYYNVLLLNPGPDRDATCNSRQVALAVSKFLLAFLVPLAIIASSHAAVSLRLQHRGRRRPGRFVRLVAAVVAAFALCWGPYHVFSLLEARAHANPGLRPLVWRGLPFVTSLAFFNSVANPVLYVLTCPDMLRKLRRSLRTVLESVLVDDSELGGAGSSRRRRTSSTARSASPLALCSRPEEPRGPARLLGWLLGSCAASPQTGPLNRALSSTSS
Description: A whole cell receptor binding assay using [^3H]ramatroban as the competing radioactive ligand was employed to evaluate the compound binding activity to human CRTH2. The radioactive ligand [^3H]ramatroban was synthesized according to Sugimoto et. al. (Eur. J. Pharmacol. 524, 30-37, 2005) to a specific activity of 42 Ci/mmol.
A cell line stably expressing human CRTH2 was established by transfecting CHO-K1 cells with two mammalian expression vectors that harbored human CRTH2 and G-alpha16 cDNAs, respectively, using FuGene® 6 transfection reagent (from Roche). Stable clones expressing CRTH2 were selected by staining each clone with BM16 (BD Pharmingen™ from BD Biosciences, a division of Becton, Dickinson and Company), which is a rat monoclonal antibody to human CRTH2. The cells were maintained as monolayer cultures in Ham's F-12 medium containing 10% fetal bovine serum, 100 units/mL penicillin, 100 μg/mL streptomycin, 2 mM glutamine, 0.5 mg/mL G418 (geneticin) for CRTH2, and 0.2 mg/mL hygromycin-B (for G-alpha 16). For whole cell receptor binding assay, the monolayer cells were rinsed once with PBS (phosphate buffered saline), dissociated using ethylenediaminetetraacetate (Versene™ EDTA from Lonza Inc.), and suspended in PBS containing 10 mM MgCl2 and 0.06% BSA (bovine serum albumin) at 1.5×10^6 cells/mL.
The binding reactions (0.2 mL) were performed in 96-well plates at room temperature in PBS containing 1.5×10^5 cells, 10 mM MgCl2, 0.06% BSA, 20 nM [^3H]ramatroban, and test compound at various concentrations. After 1 hour of binding reactions, the cells were harvested on GF™/B filter microplates (microtiter plates with embedded glass fiber from PerkinElmer, Inc.) and washed 5 times with PBS using a Filtermate™ Harvester (a cell harvester that harvests and washes cells from microplates from PerkinElmer, Inc.). The radioactivities bound to the cells were determined using a microplate scintillation counter (TopCount® NXT, from PerkinElmer, Inc.) after adding 50 μL of Microscint™ 20 scintillation fluid (from PerkinElmer, Inc.) to each well of the filter plates. The radioactivity from non-specific binding was determined by replacing compound with 10 μM of 15(R)-15-methyl PGD2 (from Cayman Chemical Company) in the reaction mixtures. The radioactivity bound to the cells in the absence of compound (total binding) was determined by replacing compound with 0.25% of DMSO (dimethyl sulfoxide) in the reaction mixture. Specific binding data were obtained by subtracting the radioactivity of non-specific binding from each binding data.
as §1

Row | SMILES | IC50 [1] [µM] | IC50 (human CRTH2) [nM]
1 | CC(C)Oc1cc(C(F)(F)F)cc(S(=O)(=O)N(C)[C@@H]2CCCc3c(OCC(=O)O)cccc32)c1 [Example 9-1, {(R)-5-[(3-isopropoxy-5-trifluoromethyl-benzenesulfonyl)-methyl-amino]-5,6,7,8-tetrahydro-naphthalen-1-yloxy}-acetic acid] | > 10 | 147
2 | CN([C@@H]1CCCc2c(OCC(=O)O)cccc21)S(=O)(=O)c1cc(C(C)(F)F)cc(C(F)(F)F)c1 [Example 5-1, ((R)-5-{[3-(1,1-difluoro-ethyl)-5-trifluoromethyl-benzenesulfonyl]-methyl-amino}-5,6,7,8-tetrahydro-naphthalen-1-yloxy)-acetic acid] | > 10 | 16.5
3 | CC(C)c1cc(C(F)(F)F)cc(S(=O)(=O)N(C)[C@@H]2CCCc3c(OCC(=O)O)cccc32)c1 [Example 8-1, {(R)-5-[(3-isopropyl-5-trifluoromethyl-benzenesulfonyl)-methyl-amino]-5,6,7,8-tetrahydro-naphthalen-1-yloxy}-acetic acid] | > 10 | 91.2
4 | CN([C@@H]1CCCc2c(OCC(=O)O)cccc21)S(=O)(=O)c1cc(S(C)(=O)=O)cc(S(C)(=O)=O)c1 [Example 1-3, {(R)-5-[(3,5-bis-methanesulfonyl-benzenesulfonyl)-methyl-amino]-5,6,7,8-tetrahydro-naphthalen-1-yloxy}-acetic acid] | > 10 | 15.7
5 | CC1(c2cc(C(F)(F)F)cc(S(=O)(=O)N[C@@H]3CCCc4c(OCC(=O)O)cccc43)c2)CC1 [Example 10-7, {(R)-5-[3-(1-methyl-cyclopropyl)-5-trifluoromethyl-benzenesulfonylamino]-5,6,7,8-tetrahydro-naphthalen-1-yloxy}-acetic acid] | > 10 | 18.4
6 | CN([C@@H]1CCCc2c(OCC(=O)O)cccc21)S(=O)(=O)c1cc(C(F)(F)F)cc(S(=O)(=O)C2CCCC2)c1 [Example 3-1, {(R)-5-[(3-cyclopentanesulfonyl-5-trifluoromethyl-benzenesulfonyl)-methyl-amino]-5,6,7,8-tetrahydro-naphthalen-1-yloxy}-acetic acid] | > 10 | 2.9
7 | CN([C@@H]1CCCc2c(OCC(=O)O)cccc21)S(=O)(=O)c1cc(N2CCCC2)cc(C(F)(F)F)c1 [Example 4-1, {(R)-5-[methyl-(3-pyrrolidin-1-yl-5-trifluoromethyl-benzenesulfonyl)-amino]-5,6,7,8-tetrahydro-naphthalen-1-yloxy}-acetic acid] | > 10 | 127
8 | CN([C@@H]1CCCc2c(OCC(=O)O)cccc21)S(=O)(=O)c1cc(C(F)(F)F)cc(C2(C)CC2)c1 [Example 7-1, ((R)-5-{methyl-[3-(1-methyl-cyclopropyl)-5-trifluoromethyl-benzenesulfonyl]-amino}-5,6,7,8-tetrahydro-naphthalen-1-yloxy)-acetic acid] | > 10 | 76.6
9 | CC(F)(F)c1cc(C(F)(F)F)cc(S(=O)(=O)N[C@@H]2CCCc3c(OCC(=O)O)cccc32)c1 [Example 10-2, {(R)-5-[3-(1,1-difluoro-ethyl)-5-trifluoromethyl-benzenesulfonylamino]-5,6,7,8-tetrahydro-naphthalen-1-yloxy}-acetic acid] | > 10 | 6
10 | CC(C)c1cc(C(F)(F)F)cc(S(=O)(=O)N[C@@H]2CCCc3c(OCC(=O)O)cccc32)c1 [Example 10-6, [(R)-5-(3-isopropyl-5-trifluoromethyl-benzenesulfonylamino)-5,6,7,8-tetrahydro-naphthalen-1-yloxy]-acetic acid] | > 10 | 13.5
11 | CN([C@@H]1CCCc2c(OCC(=O)O)cccc21)S(=O)(=O)c1cc(C(F)(F)F)cc(S(=O)(=O)C(C)(C)C)c1 [Example 3-3, ((R)-5-{methyl-[3-(2-methyl-propane-2-sulfonyl)-5-trifluoromethyl-benzenesulfonyl]-amino}-5,6,7,8-tetrahydro-naphthalen-1-yloxy)-acetic acid] | > 10 | 3.4
12 | CC(C)(C)c1cc(C(C)(C)C)cc(S(=O)(=O)N[C@@H]2CCCc3c(OCC(=O)O)cccc32)c1 [Example 10-8, [(R)-5-(3,5-di-tert-butyl-benzenesulfonylamino)-5,6,7,8-tetrahydro-naphthalen-1-yloxy]-acetic acid] | > 10 | 31
13 | CN([C@@H]1CCCc2c(OCC(=O)O)cccc21)S(=O)(=O)c1cc(Br)cc(C(F)(F)F)c1 [Example 1-5, {(R)-5-[(3-bromo-5-trifluoromethyl-benzenesulfonyl)-methyl-amino]-5,6,7,8-tetrahydro-naphthalen-1-yloxy}-acetic acid] | > 10 | 74.2
14 | O=C(O)COc1cccc2c1CCC[C@H]2NS(=O)(=O)c1cc(C(F)(F)F)cc(C(F)(F)F)c1 [Example 10-3, [(R)-5-(3,5-bis-trifluoromethyl-benzenesulfonylamino)-5,6,7,8-tetrahydro-naphthalen-1-yloxy]-acetic acid] | > 10 | 6.3
15 | CC(C)N(C)c1cc(C(F)(F)F)cc(S(=O)(=O)N(C)[C@@H]2CCCc3c(OCC(=O)O)cccc32)c1 [Example 4-3, ((R)-5-{[3-(isopropyl-methyl-amino)-5-trifluoromethyl-benzenesulfonyl]-methyl-amino}-5,6,7,8-tetrahydro-naphthalen-1-yloxy)-acetic acid] | > 10 | 410

Reference: US20100041760A1, “MONOARYL AMINOTETRALINES” (priority 2008, published 2010)
